From patent US20240269139A1, “COMPOUNDS FOR TARGETED PROTEIN DEGRADATION OF KINASES” (DANA-FARBER CANCER INSTITUTE, INC., priority 2020, published 2024)
Like-named read-outs stand apart in the source and are kept apart here.

Experiments:
Format in all cases: cell-based
[1] = target: protein kinases (human kinome) (Homo sapiens, UniProt Q9Y2K2); conditions: for logFC: SIK3 (Q9Y2K2)
[2] = target: protein kinases (human kinome) (Homo sapiens, UniProt Q05397)
[3] = target: protein kinases (human kinome) (Homo sapiens, UniProt Q9Y4K4); conditions: MAP4K5 (Q9Y4K4)
Sequence of protein kinases (human kinome) (Homo sapiens, UniProt Q9Y4K4) (Q9Y4K4 whole entry): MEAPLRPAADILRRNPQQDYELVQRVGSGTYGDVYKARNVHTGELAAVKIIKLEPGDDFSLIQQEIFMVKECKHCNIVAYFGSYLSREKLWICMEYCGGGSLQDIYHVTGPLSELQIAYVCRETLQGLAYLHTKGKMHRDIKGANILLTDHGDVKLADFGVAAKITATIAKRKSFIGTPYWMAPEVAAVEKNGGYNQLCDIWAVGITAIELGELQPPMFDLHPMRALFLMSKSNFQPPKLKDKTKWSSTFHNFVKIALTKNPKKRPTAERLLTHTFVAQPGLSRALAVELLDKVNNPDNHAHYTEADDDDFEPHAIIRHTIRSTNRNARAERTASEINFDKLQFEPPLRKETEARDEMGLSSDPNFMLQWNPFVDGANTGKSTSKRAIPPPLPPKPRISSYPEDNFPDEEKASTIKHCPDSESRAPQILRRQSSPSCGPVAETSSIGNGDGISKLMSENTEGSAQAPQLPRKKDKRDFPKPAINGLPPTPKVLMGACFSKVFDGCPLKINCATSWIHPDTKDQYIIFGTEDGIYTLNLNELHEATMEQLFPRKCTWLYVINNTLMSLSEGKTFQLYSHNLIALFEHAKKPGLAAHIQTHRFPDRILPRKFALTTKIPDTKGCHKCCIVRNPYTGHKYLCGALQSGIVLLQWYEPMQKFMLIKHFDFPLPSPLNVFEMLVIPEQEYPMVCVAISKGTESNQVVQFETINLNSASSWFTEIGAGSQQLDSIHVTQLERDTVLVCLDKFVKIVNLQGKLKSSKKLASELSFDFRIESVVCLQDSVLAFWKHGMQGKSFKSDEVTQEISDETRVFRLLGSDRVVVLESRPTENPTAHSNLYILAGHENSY

[4] = target: T1, protein kinases (human kinome) (Homo sapiens, UniProt Q8TD19); conditions: experiment wp195
T1 sequence (Q8TD19 1-979): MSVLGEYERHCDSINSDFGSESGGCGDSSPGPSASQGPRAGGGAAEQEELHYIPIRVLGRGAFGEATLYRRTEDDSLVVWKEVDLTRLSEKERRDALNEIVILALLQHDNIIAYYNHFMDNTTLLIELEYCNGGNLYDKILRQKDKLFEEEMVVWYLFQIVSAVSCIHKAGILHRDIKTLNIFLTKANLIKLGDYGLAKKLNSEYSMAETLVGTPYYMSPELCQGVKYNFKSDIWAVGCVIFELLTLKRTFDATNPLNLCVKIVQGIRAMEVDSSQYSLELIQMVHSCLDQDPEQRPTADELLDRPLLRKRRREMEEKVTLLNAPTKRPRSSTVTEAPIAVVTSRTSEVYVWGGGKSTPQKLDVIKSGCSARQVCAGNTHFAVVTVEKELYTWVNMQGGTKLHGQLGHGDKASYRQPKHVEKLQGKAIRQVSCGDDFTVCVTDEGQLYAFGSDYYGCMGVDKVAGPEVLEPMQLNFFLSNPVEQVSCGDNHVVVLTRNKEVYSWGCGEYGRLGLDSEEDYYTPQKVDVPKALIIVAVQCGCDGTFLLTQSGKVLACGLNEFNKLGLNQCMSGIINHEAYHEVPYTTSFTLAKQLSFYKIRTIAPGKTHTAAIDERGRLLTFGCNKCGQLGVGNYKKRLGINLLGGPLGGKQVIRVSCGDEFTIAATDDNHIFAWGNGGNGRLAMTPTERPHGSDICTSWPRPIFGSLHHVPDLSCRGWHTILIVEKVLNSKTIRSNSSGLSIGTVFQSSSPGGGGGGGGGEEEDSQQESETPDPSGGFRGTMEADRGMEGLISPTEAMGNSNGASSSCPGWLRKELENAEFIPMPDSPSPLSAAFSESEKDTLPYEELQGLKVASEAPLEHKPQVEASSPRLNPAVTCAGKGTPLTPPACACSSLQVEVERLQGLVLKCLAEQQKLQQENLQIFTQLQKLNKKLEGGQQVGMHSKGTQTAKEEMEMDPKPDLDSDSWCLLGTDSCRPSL

[5] = experiment wp107, direction down

Sequence of protein kinases (human kinome) (Homo sapiens, UniProt Q9Y2K2) (Q9Y2K2 whole entry): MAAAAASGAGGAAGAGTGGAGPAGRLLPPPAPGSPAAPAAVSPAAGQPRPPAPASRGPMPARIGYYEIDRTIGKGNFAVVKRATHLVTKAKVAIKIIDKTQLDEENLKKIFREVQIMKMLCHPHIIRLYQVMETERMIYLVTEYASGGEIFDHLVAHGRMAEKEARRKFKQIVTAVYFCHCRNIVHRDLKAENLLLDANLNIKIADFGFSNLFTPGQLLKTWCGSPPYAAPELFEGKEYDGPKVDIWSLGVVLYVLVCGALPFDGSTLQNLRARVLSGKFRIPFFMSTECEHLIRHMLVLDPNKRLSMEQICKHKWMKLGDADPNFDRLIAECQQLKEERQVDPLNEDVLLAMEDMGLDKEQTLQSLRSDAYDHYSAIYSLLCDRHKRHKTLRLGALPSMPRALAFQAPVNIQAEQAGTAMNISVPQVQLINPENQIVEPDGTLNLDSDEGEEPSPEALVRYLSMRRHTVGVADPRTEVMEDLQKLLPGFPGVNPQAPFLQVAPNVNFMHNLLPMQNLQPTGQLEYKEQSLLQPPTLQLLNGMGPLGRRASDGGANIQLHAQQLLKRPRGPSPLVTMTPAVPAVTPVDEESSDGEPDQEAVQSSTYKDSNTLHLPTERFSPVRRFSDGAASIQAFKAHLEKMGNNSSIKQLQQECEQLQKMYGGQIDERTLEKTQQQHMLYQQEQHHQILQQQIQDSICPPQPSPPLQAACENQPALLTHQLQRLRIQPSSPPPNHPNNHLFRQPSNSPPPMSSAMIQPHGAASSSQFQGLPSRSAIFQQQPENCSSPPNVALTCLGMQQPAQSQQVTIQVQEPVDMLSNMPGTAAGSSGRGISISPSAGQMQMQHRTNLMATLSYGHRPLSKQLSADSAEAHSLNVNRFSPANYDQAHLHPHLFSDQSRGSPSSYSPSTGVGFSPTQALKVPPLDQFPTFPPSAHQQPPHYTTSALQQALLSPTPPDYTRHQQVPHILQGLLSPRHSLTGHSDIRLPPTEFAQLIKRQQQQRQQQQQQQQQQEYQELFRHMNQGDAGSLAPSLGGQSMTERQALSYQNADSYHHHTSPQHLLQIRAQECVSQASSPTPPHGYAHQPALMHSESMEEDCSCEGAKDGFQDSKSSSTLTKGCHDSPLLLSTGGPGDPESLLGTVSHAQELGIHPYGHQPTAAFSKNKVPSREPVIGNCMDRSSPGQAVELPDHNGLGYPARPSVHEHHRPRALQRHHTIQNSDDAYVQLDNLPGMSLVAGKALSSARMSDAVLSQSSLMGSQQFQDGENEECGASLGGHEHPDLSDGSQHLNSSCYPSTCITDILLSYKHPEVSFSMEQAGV
Sequence of protein kinases (human kinome) (Homo sapiens, UniProt Q05397) (Q05397 whole entry): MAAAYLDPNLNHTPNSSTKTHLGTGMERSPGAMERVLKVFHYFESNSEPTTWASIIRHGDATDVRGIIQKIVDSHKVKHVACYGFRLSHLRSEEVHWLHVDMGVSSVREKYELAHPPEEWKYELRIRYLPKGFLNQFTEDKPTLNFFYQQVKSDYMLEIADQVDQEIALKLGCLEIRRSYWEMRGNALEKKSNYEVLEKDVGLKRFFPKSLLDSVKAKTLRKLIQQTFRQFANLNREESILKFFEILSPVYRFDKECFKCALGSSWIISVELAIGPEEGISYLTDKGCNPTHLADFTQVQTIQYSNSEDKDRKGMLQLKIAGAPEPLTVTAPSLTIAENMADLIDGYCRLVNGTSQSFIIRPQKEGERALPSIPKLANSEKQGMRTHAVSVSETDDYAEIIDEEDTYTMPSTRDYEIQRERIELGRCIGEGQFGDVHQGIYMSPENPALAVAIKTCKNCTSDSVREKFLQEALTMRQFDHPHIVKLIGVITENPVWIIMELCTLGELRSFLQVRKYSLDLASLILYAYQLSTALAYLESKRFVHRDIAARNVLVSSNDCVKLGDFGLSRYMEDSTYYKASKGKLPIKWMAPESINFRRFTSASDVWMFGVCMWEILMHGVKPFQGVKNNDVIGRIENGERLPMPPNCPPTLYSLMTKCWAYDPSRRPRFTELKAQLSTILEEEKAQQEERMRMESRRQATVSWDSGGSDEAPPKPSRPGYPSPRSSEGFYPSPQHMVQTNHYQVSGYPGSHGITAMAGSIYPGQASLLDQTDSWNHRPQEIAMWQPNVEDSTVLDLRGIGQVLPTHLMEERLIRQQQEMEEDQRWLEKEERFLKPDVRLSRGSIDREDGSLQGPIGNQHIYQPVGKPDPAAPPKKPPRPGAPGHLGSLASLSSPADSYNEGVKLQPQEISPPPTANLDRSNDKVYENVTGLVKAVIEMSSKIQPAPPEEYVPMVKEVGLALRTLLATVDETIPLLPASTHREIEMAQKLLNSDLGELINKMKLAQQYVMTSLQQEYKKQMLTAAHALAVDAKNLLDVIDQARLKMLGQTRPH

In the case of Cc1ncsc1-c1ccc([C@H](C)NC(=O)[C@@H]2C[C@@H](O)CN2C(=O)[C@@H](NC(=O)CCCCCN2CCc3cc(Nc4ncc(C5CC5)c(NCCCNC(=O)C5CCC5)n4)ccc3C2)C(C)(C)C)cc1 [BSJ.05.026], the “logFC of SIK3 (Q9Y2K2)” value ([1]; Experiment wp195) is reported as −1.186 and the logFC ([1]; experiment wp195) is reported as −1.186.
In the case of Cc1ccc(NC(=O)c2cccc(C(F)(F)F)c2)cc1N1Cc2cnc(Nc3ccc(N4CCN(Cc5cn(CCCCCOc6cccc7c6C(=O)N(C6CCC(=O)NC6=O)C7=O)nn5)CC4)nc3)nc2N(C)C1=O (centres unmarked) [DB0646, N-(3-(7-((6-(4-((1-(5-((2-(2,6-Dioxopiperidin-3-yl)-1,3-dioxoisoindolin-4-yl)oxy)pentyl)-1H-1,2,3-triazol-4-yl)methyl)piperazin-1-v)pyridin-3-yl)amino)-1-methyl-2-oxo-1,4-dihydropyrimido[4,5-d]pyrimidin-3(2H)-yl)-4-methylphenyl)-3-(trifluoromethyl)benzamide], the “logFC PTK2” value ([2]; Accession Q05397, experiment wp105, direction down) is reported as −0.5575, the “logFC PTK2” value ([2]; PTK2 Q05397, experiment wp105) is reported as −0.5575 and the logFC ([2]; PTK2 Q05397, experiment wp114) is reported as −0.5538. The “logFC PTK2” value ([2]; PTK2 Q05397, experiment wp114) was −0.5538, the logFC ([2]; PTK2 Q05397, experiment wp172) was −0.8047 and the “logFC PTK2” value ([2]; PTK2 Q05397, experiment wp172) was −0.8047. The logFC ([3]; experiment wp045) was −0.4109, the logFC ([3]; experiment wp045, direction down) was −0.4109 and the logFC ([3]; experiment wp107) was −0.3345. For the same compound, the logFC [3, 5] was −0.3345, the logFC ([3]; experiment wp160, 8 hr) was −0.5009 and the logFC ([3]; experiment wp160, 8 hr, direction down) was −0.5009.
With Cc1ccc(NC(=O)c2cccc(C(F)(F)F)c2)cc1N1Cc2cnc(Nc3ccc(N4CCN(CCCCC(=O)N[C@H](C(=O)N5C[C@H](O)C[C@H]5C(=O)N[C@@H](C)c5ccc(-c6scnc6C)cc5)C(C)(C)C)CC4)nc3)nc2N(C)C1=O [DB1113] the “logFC of SIK3 (Q9Y2K2)” value ([1]; Experiment wp168) was −1.602, the logFC ([1]; experiment wp168) was −1.602 and the logFC ([3]; experiment wp168) was −1.754. For the same compound, the logFC ([3]; experiment wp168, direction down) was −1.754.
With Cc1cnc(Nc2ccc(N3CCN(CCCCCCC(=O)N[C@H](C(=O)N4C[C@H](O)C[C@H]4C(=O)N[C@@H](C)c4ccc(-c5scnc5C)cc4)C(C)(C)C)CC3)cc2)nc1Nc1cccc(S(=O)(=O)NC(C)(C)C)c1 [JWG.123] the logFC ([4]; NEK9 (Q8TD19), direction down) was −1.079, the logFC ([4]; NEK9 Q8TD19) was −1.079 and the “logFC of SIK3 (Q9Y2K2)” value ([1]; Experiment wp195) was −1.322. It also gave a logFC ([1]; experiment wp195) of −1.322.
Compound Cc1ccc(C(=O)Nc2ccc(CN3CCN(CCCOCCOCCOCCNC(=O)COc4cccc5c4C(=O)N(C4CCC(=O)NC4=O)C5=O)CC3)c(C(F)(F)F)c2)cc1C#Cc1cnc2cccnn12 (centres unmarked) [SB1.G.187] has a logFC ([3]; experiment wp105) of −0.3488, a logFC ([3]; experiment wp105, direction down) of −0.3488 and a logFC ([3]; experiment wp107) of −0.4411. For the same compound, the logFC [3, 5] was −0.4411.
